Assay results as given in patent US8901118B2, “Compounds and methods for kinase modulation, and indications therefor” (Plexxikon Inc., priority 2010, dated 2014).

Legend:
[1] = system: BCR-FMS BaF3 cells; test: Splenomegaly mouse model, BCR-FMS BaF3 cells; format: in vivo
Experimental: (§1) BaF3 cells are engineered with any of BCR-FMS, BCR-TRK1 or BCR-TRK2 to assess in vivo inhibitory effects of Fms, TrkA or TrkB inhibition, respectively. BaF3 cells are maintained in growth media (RPMI containing 10% FBS, 1% PenStrep, 1% NEAA, and 1% L-Glutamine, supplemented with 5% murine IL-3 and 1 mg/mL G418). Four days prior to start, 2×10^6 cells are inoculated into a T150 vented flask using the growth media and incubated at 37° C. in 5% CO2 for three days. One day prior to start, cells are collected by centrifugation and are suspended in growth media without IL-3. On the day of cell implant, the cells are collected by centrifugation, rinsed 3×20 mL with RPMI, then are suspended in 5.4 mL of media and counted, then adjusted with additional RPMI as needed to give 5×10^7 cells/mL. On day 1, female nu/nu mice at 5-6 weeks of age are injected intravenously with BaF3 cells injected injecting 0.1 mL (5×10^6) cells in the tail vein (mice without cell injected are included as control group). Compound stocks in dimethylsulfoxide are stored at room temperature protected from light. Stocks are diluted prior to dosing, diluting 22 μL of compound stock into 858 μL of diluent (or 50 μL into 1950 μL) to provide vehicle of 1.0% Polysorbate 80, 0.5% hydroxypropyl methyl cellulose, with final dimethylsulfoxide at 2.5% in all dosing suspensions and vehicle control. Dosing suspension is prepared prior to use, mixing by inversion and sonication in a water bath to make a uniform suspension. On days 10-18, mice are treated with vehicle only or the desired level of compound in vehicle, ˜0.2 mL per 25 gm mouse, once a day by oral gavage, or in some instances, twice per day. On day 18, mice are administered a final dose and two hours later a plasma sample is taken. At four hours following the final dose, mice are sacrificed, an additional plasma sample is collected and mouse spleens are removed and weighed. The average spleen weight of vehicle control group mice is compared to the average spleen weight of the test compound mice. Percent spleen growth inhibition is calculated as 100×[(spleen weight vehicle control-spleen weight test compound)/spleen weight vehicle control]. In some instances, the compounds were not tested in all of the assays as indicated by NA in the table below.

[2] = biological target: TrkC kinase (Homo sapiens, UniProt Q16288); test: TrkC kinase biochemical activity assay (similar to TrkA assay); conditions: read-out: Biochemical Inhibition IC50 TrkC
Experimental: In one assay the biochemical activity IC50 values are determined with respect to inhibition of TrkA kinase activity, where inhibition of phosphorylation of a peptide substrate is measured as a function of compound concentration. Compounds to be tested, dissolved in DMSO (1 μL), are added to a white 384-well plate (Costar #3705). Working stocks of TrkA kinase (UBI), biotin-(E4Y)10 substrate (Upstate Biotech, Cat#12-440), and ATP (Sigma, Cat#A-3377) are prepared in 25 mM Hepes pH 7.5, 10 mM MnCl2, 1 mM DTT, 0.01% BSA, and 0.01% Tween-20. All components are added to the 384-well plate for a final concentration of 1 ng/well TrkA, 30 nM biotin-(E4Y)10 and 100 μM ATP in a volume of 20 μL. Each sample is at 5% DMSO. The plate is shaken for 1 minute at 1200 rpm, spun for 1 minute at 1000 rpm, then incubated for 40 minutes at room temperature. Just before use, working stocks of donor and acceptor beads from the AlphaScreen PY20 Detection Kit (PerkinElmer, Cat#676601M) are prepared in 25 mM Hepes pH 7.5, 100 mM EDTA. 0.01% BSA. Donor Beads solution (Streptavidin beads) is added (5 μL) to each well to final bead concentration of 10 μg/mL. The plate is incubated at room temperature for 20 minutes. Acceptor Beads solution (PY20 coated beads) are then added to each well (5 μL) to a final concentration of bead at 10 μg/mL. The plates are incubated at room temperature for 60 minutes. Fluorescence signal is recorded on the Envision reader. Phosphorylated substrate results in binding of the PY20 antibody and association of the donor and acceptor beads such that signal correlates with kinase activity. The signal vs. compound concentration is used to determine the IC50. Similar assays are used for TrkB and Trk C kinase.

[3] = system: BCR-TRK2 BaF3 cells; test: Splenomegaly mouse model, BCR-TRK2 BaF3 cells; format: in vivo
Experimental: as §1

[4] = system: BCR-TRK1 BaF3 cells; test: Splenomegaly mouse model, BCR-TRK1 BaF3 cells; format: in vivo
Experimental: as §1, with “The average spleen weight of vehicle control group mice is compared to the average spleen weight of the test compound mice.” left out, “In some instances, the compounds were not tested in all of the assays as indicated by NA in the table below.” left out

[5] = dosed once per day at 10 mg per kg

Sequence of TrkC kinase (Q16288 32-839): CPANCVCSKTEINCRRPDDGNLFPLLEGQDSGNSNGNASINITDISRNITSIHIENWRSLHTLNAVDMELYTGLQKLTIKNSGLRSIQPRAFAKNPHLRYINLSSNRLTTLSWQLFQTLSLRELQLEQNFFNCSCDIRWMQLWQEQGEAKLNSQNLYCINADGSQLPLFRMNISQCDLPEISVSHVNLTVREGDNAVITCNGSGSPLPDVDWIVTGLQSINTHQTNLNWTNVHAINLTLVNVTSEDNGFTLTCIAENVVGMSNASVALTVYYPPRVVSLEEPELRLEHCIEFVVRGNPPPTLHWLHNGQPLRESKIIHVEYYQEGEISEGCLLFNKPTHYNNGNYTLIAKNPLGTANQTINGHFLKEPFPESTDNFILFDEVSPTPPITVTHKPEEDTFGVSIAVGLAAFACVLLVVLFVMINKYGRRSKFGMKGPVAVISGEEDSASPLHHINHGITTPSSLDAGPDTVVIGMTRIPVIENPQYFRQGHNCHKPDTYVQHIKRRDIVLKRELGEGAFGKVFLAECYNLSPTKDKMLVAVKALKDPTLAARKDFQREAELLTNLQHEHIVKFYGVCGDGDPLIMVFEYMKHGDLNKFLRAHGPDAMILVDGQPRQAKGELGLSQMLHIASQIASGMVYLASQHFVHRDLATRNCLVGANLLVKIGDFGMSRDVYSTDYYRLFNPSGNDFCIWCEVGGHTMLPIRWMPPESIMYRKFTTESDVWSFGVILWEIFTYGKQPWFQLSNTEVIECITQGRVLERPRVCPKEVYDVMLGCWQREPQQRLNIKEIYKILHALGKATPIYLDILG

Row | IC50 [2] [nM] | SMILES | % spleen growth inhibition, Fms [1, 5] [%] | % spleen growth inhibition, TrkB [3, 5] [%] | % spleen growth inhibition, Fms ([1]; dosed at 30 mg/kg) [%] | % spleen growth inhibition, TrkB ([3]; dosed at 30 mg/kg) [%] | % spleen growth inhibition, TrkA ([4]; dosed at 30 mg/kg) [%] | % spleen growth inhibition, TrkA [4, 5] [%]
1 | < 100 | COc1ccc(Nc2ccc(Cc3c[nH]c4ncc(C)cc34)c(F)n2)cn1 [Compound P-3019, [6-fluoro-5-(5-methyl-1H-pyrrolo[2,3-b]pyridin-3-ylmethyl)-pyridin-2-yl]-(6-methoxy-pyridin-3-yl)-amine] | 40 | 14 |  |  |  | 
2 | < 100 | CCOc1ccc(Nc2ncc(Cc3c[nH]c4ncc(C)cc34)cn2)cn1 [Compound P-3027, (6-Ethoxy-pyridin-3-yl)-[5-(5-methyl-1H-pyrrolo[2,3-b]pyridin-3-ylmethyl)-pyrimidin-2-yl]-amine] | 42 | 2 |  |  |  | 
3 |  | COc1ncnc2[nH]cc(Cc3ccc(Nc4ccc(C5CC5)nc4)nc3F)c12 [Compound P-4004, (6-Cyclopropyl-pyridin-3-yl)-[6-fluoro-5-(4-methoxy-7H-pyrrolo[2,3-d]pyrimidin-5-ylmethyl)-pyridin-2-yl]-amine] | 36 | 41 | 70 | 91 | 40 | 16
4 |  | CCOc1ccc(Nc2ccc(Cc3c[nH]c4ncnc(OC)c34)c(F)n2)cn1 [Compound P-4005, (6-Ethoxy-pyridin-3-yl)-[6-fluoro-5-(4-methoxy-7H-pyrrolo[2,3-d]pyrimidin-5-ylmethyl)-pyridin-2-yl]-amine] | 65 | 35 |  |  |  | 25
5 |  | CCOc1ccc(Nc2ccc(Cc3c[nH]c4ncnc(C)c34)c(F)n2)cn1 [Compound P-4006, (6-Ethoxy-pyridin-3-yl)-[6-fluoro-5-(4-methyl-7H-pyrrolo[2,3-d]pyrimidin-5-ylmethyl)-pyridin-2-yl]-amine] | 55 | 21 |  |  |  | 
6 |  | CCc1ccc(Nc2ccc(Cc3c[nH]c4ncnc(OC)c34)c(F)n2)cn1 [Compound P-4007, (6-Ethyl-pyridin-3-yl)-[6-fluoro-5-(4-methoxy-7H-pyrrolo[2,3-d]pyrimidin-5-ylmethyl)-pyridin-2-yl]-amine] | 28 | 19 |  |  |  | 
7 |  | COc1ccc(Nc2ccc(C(=O)c3c[nH]c4ncnc(C5CC5)c34)c(F)n2)cn1 [Compound P-4022, (4-cyclopropyl-7H-pyrrolo[2,3-d]pyrimidin-5-yl)-[2-fluoro-6-(6-methoxy-pyridin-3-ylamino)-pyridin-3-yl]-methanone] | 42 | 33 |  |  |  | 
8 |  | CCc1ccc(Nc2ccc(Cc3c[nH]c4ncnc(C5CC5)c34)c(F)n2)cn1 [Compound P-4028, [5-(4-Cyclopropyl-7H-pyrrolo[2,3-d]pyrimidin-5-ylmethyl)-6-fluoro-pyridin-2-yl]-(6-ethyl-pyridin-3-yl)-amine] | 86 | 88 |  |  |  | 
9 |  | Cc1ccc(Nc2ccc(Cc3c[nH]c4ncnc(C5CC5)c34)c(F)n2)cn1 [Compound P-4030, [5-(4-Cyclopropyl-7H-pyrrolo[2,3-d]pyrimidin-5-ylmethyl)-6-fluoro-pyridin-2-yl]-(6-methyl-pyridin-3-yl)-amine] | 58 | 50 |  |  |  | 
